# In patent publication US7465718B2, “Ansamycins having improved pharmacological and biological properties” (Conforma Therapeutics Corporation, priority 2002, dated 2008):
# How the values were obtained:
# [1] = MTS assay to measure cytotoxicity of PBMC; format: cell-based, human; settings: human, PBMC, PBMCs without virus, read-out: TC50 (μM) (50% cytotoxicity)
# Method: PBMC's in 96 well plates that were treated with compounds (without virus) were assayed for cell viability and compound toxicity using an MTS assay (CellTiter 96 Aqueous Non-Radioactivity Cell Proliferation Assay, Promega, Madison; Wis.).
# HIV-1ROJO = assay: Anti-HIV PBMC assay (reverse transcriptase activity in supernatant); settings: for TI (therapeutic index, TC50/IC50): HIV-1ROJO in PBMCs; for IC50: read-out: IC50 (μM) (50% inhibition of virus replication), HIV-1ROJO in fresh human PBMCs, 7 days
# HSP90 (bis-ANS treated) = assay: Biotin-geldanamycin competition binding, bis-ANS treated HSP90
# Her-2 = assay: HER2 inhibition assay (Her-2 degradation in MCF7 cells, flow cytometry); format: cell-based; settings: read-out: HER-2 degradation (IC50 nM)
# Method: MCF7 cells are seeded in 24 well plates at a density of approximately 30,000 cells/well and allowed to grow for 16 hours in DMEM supplemented with 10% FBS. Drug is then added at a concentration range of 100 uM to 0.01 uM. Cells are incubated for an additional 24. […] 10,000 events were collected per sample. A fluorescence histogram was generated and the mean fluorescence intensity (mfi) of each sample was determined using Cellquest software. The background was defined as the mfi generated from cells incubated with control IgG, and was subtracted from each sample stained with the HER-2/neu Ab. Percent degradation of Her-2 was calculated as follows: % Her-2 degradation=(mfi HER-2 sample)/(mfi HER-2 untreated cells)×100 Water Solubility Studies
# [2] = Water solubility studies (salts dissolved in water at room temperature); format: physicochemical; settings: thermodynamic from solid, HCl salt, read-out: Solubility of the HCl salt in H2O
# Method: Various salts were prepared as described in the example section and dissolved in water at room temperature.
# rHsp90 (low affinity) = assay: Biotin-geldanamycin competition binding, purified native HSP90 protein (rHsp90, low affinity); settings: read-out: rHsp90 (low affinity) IC50 nM; inhibition of biotin-GM binding to purified HSP90, 4° C.
# [3] = system: HSP90 (cell lysate, high affinity); assay: Biotin-geldanamycin competition binding, HSP90 in cell lysate (high affinity); settings: for ratio: rHsp90 (low affinity) IC50 over lysate (high affinity) IC50; for IC50: read-out: Lysate (high affinity) IC50 nM, inhibition of biotin-GM binding to HSP90 in cell lysate, 4° C.
# SKOV-3 ovarian xenograft = SKOV-3 ovarian xenograft model; format: in vivo; settings: tumors 200 mm3 before commencement of treatment
# Description: Compounds have also been tested in HER-2 over-expressing tumor models such as BT474 breast and SKOV-3 ovarian carcinoma A therapy experiment with SKOV-3 is shown in FIG. 6. The treatment, doses, and schedule were the same as used in the A549 and MDA435 experiments. In this case, the tumors were allowed to become established and grow to a relatively large size (200 mm3) before commencement of treatment.
compound,measurement,setting,value
CCOP(=O)(NCCCCNC1=C2CC(C)CC(OC)C(O)C(C)/C=C(\C)C(OC(N)=O)C(OC)/C=C\C=C(/C)C(=O)NC(=CC1=O)C2=O)OCC (stereo not shown),melting point,,94.8 to 96.2 °C
COC1/C=C\C=C(/C)C(=O)NC2=CC(=O)C(NC(=O)NCc3ccc(F)cc3)=C(CC(C)CC(OC)C(O)C(C)/C=C(\C)C1OC(N)=O)C2=O (stereo not shown),melting point,,175 to 177 °C
COC1/C=C\C=C(/C)C(=O)NC2=CC(=O)C(NC(=O)c3snnc3C)=C(CC(C)CC(OC)C(O)C(C)/C=C(\C)C1OC(N)=O)C2=O (stereo not shown),melting point,,157 to 159 °C
COC1/C=C\C=C(/C)C(=O)NC2=CC(=O)C(NC(=O)c3c(C)noc3C)=C(CC(C)CC(OC)C(O)C(C)/C=C(\C)C1OC(N)=O)C2=O (stereo not shown),melting point,,190 to 192 °C
COC1/C=C\C=C(/C)C(=O)NC2=CC(=O)C(NC(=O)c3cc(C)nn3C)=C(CC(C)CC(OC)C(O)C(C)/C=C(\C)C1OC(N)=O)C2=O (stereo not shown),melting point,,193 to 195 °C
C=CCO/N=C1/[C@@H](OC)C[C@H](C)CC2=C(NC(=O)c3ccccc3)C(=O)C=C(NC(=O)/C(C)=C/C=C\[C@H](OC)[C@@H](OC(N)=O)/C(C)=C/[C@@H]1C)C2=O (stereo in doubt) [Compound #1011],CC50,[1],2.9 µM
same,"TI (therapeutic index, TC50/IC50)",HIV-1ROJO,14.5
same,IC50,HIV-1ROJO,0.2 µM
same,IC50,HSP90 (bis-ANS treated),5 µM
CO/N=C1/[C@@H](OC)C[C@H](C)CC2=C(NC(=O)c3ccccc3)C(=O)C=C(NC(=O)/C(C)=C/C=C\[C@H](OC)[C@@H](OC(N)=O)/C(C)=C/[C@@H]1C)C2=O (stereo in doubt) [Compound #1012],IC50,HSP90 (bis-ANS treated),6 µM
CCO/N=C1/[C@@H](OC)C[C@H](C)CC2=C(NC(=O)c3ccccc3)C(=O)C=C(NC(=O)/C(C)=C/C=C\[C@H](OC)[C@@H](OC(N)=O)/C(C)=C/[C@@H]1C)C2=O (stereo in doubt) [Compound #1013],IC50,HSP90 (bis-ANS treated),5.2 µM
"C=CCNC1=C2C[C@@H](C)C[C@H](OC)[C@H](O)[C@@H](C)/C=C(\C)[C@H](OC(N)=O)[C@@H](OC)/C=C\C=C(/C)C(=O)NC(=CC1=O)C2=O [Compound 17-AAG, 17-allyl amino geldanamycin, reference compound]",CC50,[1],2.02 µM
same,IC50,HIV-1ROJO,0.38 µM
same,IC50,Her-2,5 nM
same,solubility,[2],< 10 µg/mL
"COC1/C=C\C=C(/C)C(=O)NC2=CC(=O)C(c3ccccc3)=C(CC(C)CC(OC)C(O)C(C)/C=C(\C)C1OC(N)=O)C2=O (stereo not shown) [Compound #133, 17-phenyl-geldanamycin]",IC50,Her-2,25 nM
same,solubility,[2],< 10 µg/mL
COC1C=CC=C(C)C(=O)NC2=CC(=O)C(NCCCN3CCN(CCCNC4=C5CC(C)CC(OC)C(O)C(C)C=C(C)C(OC(N)=O)C(OC)C=CC=C(C)C(=O)NC(=CC4=O)C5=O)CC3)=C(CC(C)CC(OC)C(O)C(C)C=C(C)C1OC(N)=O)C2=O (stereo not shown) [Compound #207],melting point,,162 °C
same,IC50,Her-2,12 nM
same,solubility,[2],≥ 13000 µg/mL
COC1C=CC=C(C)C(=O)NC2=CC(=O)C(NCCCN(C)CCCNC3=C4CC(C)CC(OC)C(O)C(C)C=C(C)C(OC(N)=O)C(OC)C=CC=C(C)C(=O)NC(=CC3=O)C4=O)=C(CC(C)CC(OC)C(O)C(C)C=C(C)C1OC(N)=O)C2=O (stereo not shown) [Compound #208],CC50,[1],0.27 µM
same,"TI (therapeutic index, TC50/IC50)",HIV-1ROJO,38.6
same,IC50,HIV-1ROJO,0.007 µM
same,melting point,,153 °C (dec.)
same,IC50,Her-2,11 nM
same,solubility,[2],≥ 20000 µg/mL
"COc1ccccc1C1=C2CC(C)CC(OC)C(O)C(C)/C=C(\C)C(OC(N)=O)C(OC)/C=C\C=C(/C)C(=O)NC(=CC1=O)C2=O (stereo not shown) [Compound #212, 17-(2-methoxy-phenyl)-geldanamycin]",IC50,Her-2,10 nM
same,solubility,[2],< 10 µg/mL
"COC1/C=C\C=C(/C)C(=O)NC2=CC(=O)C(c3cccs3)=C(CC(C)CC(OC)C(O)C(C)/C=C(\C)C1OC(N)=O)C2=O (stereo not shown) [Compound #232, 17-(2-thiophen)-geldanamycin]",IC50,Her-2,80 nM
same,solubility,[2],< 10 µg/mL
"COC1/C=C\C=C(/C)C(=O)NC2=CC(=O)C(NC(=O)c3ccccn3)=C(CC(C)CC(OC)C(O)C(C)/C=C(\C)C1OC(N)=O)C2=O (stereo not shown) [Compound #529, 17-picolinoyl-aminogeldanamycin]",melting point,,195 to 197 °C
same,IC50,rHsp90 (low affinity),1000 nM
same,ratio,[3],67
same,IC50,[3],15 nM
"COC1/C=C\C=C(/C)C(=O)NC2=CC(=O)C(NC(=O)c3ccncc3)=C(CC(C)CC(OC)C(O)C(C)/C=C(\C)C1OC(N)=O)C2=O (stereo not shown) [Compound #530, 17-isonicotinoyl-aminogeldanamycin]",melting point,,167 to 169 °C
same,IC50,Her-2,100 nM
same,solubility,[2],> 2000 µg/mL
"COC1/C=C\C=C(/C)C(=O)NC2=CC(=O)C(NC(=O)c3cc(C)nn3C(C)(C)C)=C(CC(C)CC(OC)C(O)C(C)/C=C(\C)C1OC(N)=O)C2=O (stereo not shown) [Compound #561, 17-(1-t-butyl-3-methyl-1H-pyrazole-5-carbonyl-amino)-geldanamycin]",melting point,,216 to 218 °C
"COC1/C=C\C=C(/C)C(=O)NC2=CC(=O)C(NC(=O)c3ccccc3)=C(CC(C)CC(OC)C(O)C(C)/C=C(\C)C1OC(N)=O)C2=O (stereo not shown) [Compound #563, 17-(benzoyl)-aminogeldanamycin]",melting point,,218 to 220 °C
same,IC50,rHsp90 (low affinity),4500 nM
same,ratio,[3],90
same,IC50,[3],50 nM
same,tumor growth in SKOV-3 xenograft,SKOV-3 ovarian xenograft,suppressed tumor growth almost completely
"CO[C@H]1/C=C\C=C(/C)C(=O)NC2=CC(=O)C(NC(=O)c3ccc(CN(C)C)cc3)=C(C[C@@H](C)C[C@H](OC)[C@H](O)[C@@H](C)/C=C(\C)[C@@H]1OC(N)=O)C2=O [Compound #687, 17-(4-dimethylaminomethyl-benzoyl)-aminogeldanamycin]",melting point,,203 to 206 °C
same,IC50,rHsp90 (low affinity),2000 nM
same,ratio,[3],250
same,IC50,[3],8 nM
CO[C@H]1/C=C\C=C(/C)C(=O)NC2=CC(=O)C(NC(=O)OCc3ccc(OC(C)=O)cc3)=C(C[C@@H](C)C[C@H](OC)[C@H](O)[C@@H](C)/C=C(\C)[C@@H]1OC(N)=O)C2=O [Compound #709],IC50,rHsp90 (low affinity),1500 nM
same,ratio,[3],167
same,IC50,[3],9 nM
CO[C@H]1/C=C\C=C(/C)C(=O)NC2=CC(=O)C(NC(=O)OCC(C)C)=C(C[C@@H](C)C[C@H](OC)[C@H](O)[C@@H](C)/C=C(\C)[C@@H]1OC(N)=O)C2=O [Compound #749],CC50,[1],1.12 µM
same,"TI (therapeutic index, TC50/IC50)",HIV-1ROJO,56.0
same,IC50,HIV-1ROJO,0.02 µM
CO[C@H]1/C=C\C=C(/C)C(=O)NC2=CC(=O)C(NC(=O)c3ccccc3)=C(C[C@@H](C)C[C@H](OC)[C@@H](OC(=O)CBr)[C@@H](C)/C=C(\C)[C@@H]1OC(N)=O)C2=O [Compound #981],IC50,HSP90 (bis-ANS treated),5.5 µM
CO[C@H]1/C=C\C=C(/C)C(=O)NC2=CC(=O)C(NC(=O)c3ccccc3)=C(C[C@@H](C)C[C@H](OC)[C@@H](OC(=O)/C=C/c3cccs3)[C@@H](C)/C=C(\C)[C@@H]1OC(N)=O)C2=O [Compound #982],IC50,HSP90 (bis-ANS treated),5.5 µM
CO[C@H]1/C=C\C=C(/C)C(=O)NC2=CC(=O)C(NC(=O)c3ccccc3)=C(C[C@@H](C)C[C@H](OC)[C@@H](OC(=O)Cc3ccccc3)[C@@H](C)/C=C(\C)[C@@H]1OC(N)=O)C2=O [Compound #983],IC50,HSP90 (bis-ANS treated),7 µM
CO[C@H]1/C=C\C=C(/C)C(=O)NC2=CC(=O)C(NC(=O)c3ccccc3)=C(C[C@@H](C)C[C@H](OC)[C@@H](OC(=O)Cc3cccs3)[C@@H](C)/C=C(\C)[C@@H]1OC(N)=O)C2=O [Compound #984],IC50,HSP90 (bis-ANS treated),4.2 µM
CCCCCC(=O)O[C@@H]1[C@@H](OC)C[C@H](C)CC2=C(NC(=O)c3ccccc3)C(=O)C=C(NC(=O)/C(C)=C/C=C\[C@H](OC)[C@@H](OC(N)=O)/C(C)=C/[C@@H]1C)C2=O [Compound #985],IC50,HSP90 (bis-ANS treated),12 µM
